Test results as given in US12077503B2, “Substituted cyclic amides and their use as herbicides” (FMC CORPORATION, priority 2015, dated 2024).

Experiments:
Test in all cases: Test C preemergence
Assay type in all cases: in vivo
Settings in all cases: scale 0 to 100, 0 no effect, 100 complete control
[1] = tested on: blackgrass (Alopecurus myosuroides)
Source text: (§1) Seeds of plant species selected from blackgrass (Alopecurus myosuroides), ryegrass, Italian (Italian ryegrass, Lolium multiflorum), wheat (winter wheat, Triticum aestivum), Galium (catchweed bedstraw, Galium aparine), corn (Zea mays), crabgrass, large (large crabgrass, Digitaria sanguinalis), foxtail, giant (giant foxtail, Setaria faberii), johnsongrass (Sorghum halepense), lambsquarters (Chenopodium album), morningglory (Ipomoea coccinea), nutsedge, yellow (yellow nutsedge, Cyperus esculentus), pigweed (Amaranthus retroflexus), ragweed (common ragweed, Ambrosia elatior), soybean (Glycine max), barnyardgrass (Echinochloa crus-galli), oilseed rape (Brassica napus), waterhemp (common waterhemp, Amaranthus rudis) and velvetleaf (Abutilon theophrasti) were planted into a blend of loam soil and sand and treated preemergence with test chemicals formulated in a non-phytotoxic solvent mixture which included a surfactant.
(§2) At the same time, plants selected from these crop and weed species and also Kochia (Kochia scoparia), oat, wild (wild oat, Avena fatua), and chickweed (common chickweed, Stellaria media) were planted in pots containing Sunshine Redi-Earth® planting medium comprising spaghnum peat moss, vermiculite, starter nutrients and dolomitic limestone and treated with postemergence applications of test chemicals formulated in the same manner. Plants ranged in height from 2 to 18 cm (1- to 4-leaf stage) for postemergence treatments. Treated plants and controls were maintained in a greenhouse for 13 to 15 d, after which time all species were compared to controls and visually evaluated. Plant response ratings, summarized in Table C, are based on a scale of 0 to 100 where 0 is no effect and 100 is complete control. A dash (-) response means no test result.

[2] = tested on: barnyardgrass (Echinochloa crus-galli)
Source text: as §1, §2

[3] = tested on: ryegrass, Italian (Italian ryegrass, Lolium multiflorum)
Source text: as §1, §2

[4] = tested on: morningglory (Ipomoea coccinea)
Source text: as §1, §2

[5] = tested on: pigweed (Amaranthus retroflexus)
Source text: as §1, §2

[6] = tested on: foxtail, giant (giant foxtail, Setaria faberii)
Source text: as §1, §2

[7] = tested on: wheat (winter wheat, Triticum aestivum)
Source text: as §1, §2

soybean (Glycine max) = tested on: soybean (Glycine max)
Source text: as §1, §2

[8] = tested on: lambsquarters (Chenopodium album)
Source text: as §1, §2

corn (Zea mays) = tested on: corn (Zea mays)
Source text: as §1, §2

[9] = tested on: waterhemp (common waterhemp, Amaranthus rudis)
Source text: as §1, §2

[10] = tested on: ragweed (common ragweed, Ambrosia elatior)
Source text: as §1, §2

[11] = tested on: velvetleaf (Abutilon theophrasti)
Source text: as §1, §2

[12] = tested on: oilseed rape (Brassica napus)
Source text: as §1, §2

[13] = tested on: nutsedge, yellow (yellow nutsedge, Cyperus esculentus)
Source text: as §1, §2

[14] = tested on: crabgrass, large (large crabgrass, Digitaria sanguinalis)
Source text: as §1, §2

[15] = tested on: Galium (catchweed bedstraw, Galium aparine)
Source text: as §1, §2

CN1CC(c2ccc(C(F)(F)F)c(F)c2)C(C(=O)Nc2cccc(F)c2F)C1=O (stereo not drawn) [Compound 396]
Plant response rating, Blackgrass ([1]; 31 g ai/ha): 50 | Plant response rating, Blackgrass ([1]; 62 g ai/ha): 50 | Plant response rating, Blackgrass ([1]; 125 g ai/ha): 80 | Plant response rating, Blackgrass ([1]; 250 g ai/ha): 80 | Plant response rating, Barnyardgrass ([2]; 31 g ai/ha): 85 | Plant response rating, Barnyardgrass ([2]; 62 g ai/ha): 95 | Plant response rating, Barnyardgrass ([2]; 125 g ai/ha): 98 | Plant response rating, Barnyardgrass ([2]; 250 g ai/ha): 98 | Plant response rating, Ryegrass, Italian ([3]; 62 g ai/ha): 55 | Plant response rating, Ryegrass, Italian ([3]; 125 g ai/ha): 30 | Plant response rating, Ryegrass, Italian ([3]; 250 g ai/ha): 80 | Plant response rating, Morningglory ([4]; 31 g ai/ha): 10 | Plant response rating, Morningglory ([4]; 62 g ai/ha): 40 | Plant response rating, Morningglory ([4]; 125 g ai/ha): 60 | Plant response rating, Morningglory ([4]; 250 g ai/ha): 70 | Plant response rating, Pigweed ([5]; 31 g ai/ha): 85 | Plant response rating, Pigweed ([5]; 62 g ai/ha): 80 | Plant response rating, Pigweed ([5]; 125 g ai/ha): 90 | Plant response rating, Pigweed ([5]; 250 g ai/ha): 95 | Plant response rating, Foxtail, Giant ([6]; 31 g ai/ha): 95 | Plant response rating, Foxtail, Giant ([6]; 62 g ai/ha): 98 | Plant response rating, Foxtail, Giant ([6]; 125 g ai/ha): 98 | Plant response rating, Foxtail, Giant ([6]; 250 g ai/ha): 98 | Plant response rating, Wheat ([7]; 62 g ai/ha): 10 | Plant response rating, Wheat ([7]; 125 g ai/ha): 70 | Plant response rating, Wheat ([7]; 250 g ai/ha): 90 | Plant response rating, Soybean (soybean (Glycine max); 62 g ai/ha): 0 | Plant response rating, Soybean (soybean (Glycine max); 125 g ai/ha): 0 | Plant response rating, Soybean (soybean (Glycine max); 250 g ai/ha): 0 | Plant response rating, Lambsquarters ([8]; 31 g ai/ha): 50 | Plant response rating, Lambsquarters ([8]; 62 g ai/ha): 75 | Plant response rating, Lambsquarters ([8]; 125 g ai/ha): 70 | Plant response rating, Lambsquarters ([8]; 250 g ai/ha): 98 | Plant response rating, Corn (corn (Zea mays); 31 g ai/ha): 0 | Plant response rating, Corn (corn (Zea mays); 62 g ai/ha): 50 | Plant response rating, Corn (corn (Zea mays); 125 g ai/ha): 65 | Plant response rating, Corn (corn (Zea mays); 250 g ai/ha): 75 | Plant response rating, Waterhemp ([9]; 62 g ai/ha): 90 | Plant response rating, Waterhemp ([9]; 125 g ai/ha): 95 | Plant response rating, Waterhemp ([9]; 250 g ai/ha): 95 | Plant response rating, Ragweed ([10]; 31 g ai/ha): 65 | Plant response rating, Ragweed ([10]; 62 g ai/ha): 80 | Plant response rating, Ragweed ([10]; 125 g ai/ha): 85 | Plant response rating, Ragweed ([10]; 250 g ai/ha): 85 | Plant response rating, Velvetleaf ([11]; 62 g ai/ha): 40 | Plant response rating, Velvetleaf ([11]; 125 g ai/ha): 65 | Plant response rating, Velvetleaf ([11]; 250 g ai/ha): 60 | Plant response rating, Oilseed Rape ([12]; 31 g ai/ha): 30 | Plant response rating, Oilseed Rape ([12]; 62 g ai/ha): 70 | Plant response rating, Oilseed Rape ([12]; 125 g ai/ha): 80 | Plant response rating, Oilseed Rape ([12]; 250 g ai/ha): 85 | Plant response rating, Nutsedge, Yellow ([13]; 31 g ai/ha): 0 | Plant response rating, Nutsedge, Yellow ([13]; 62 g ai/ha): 0 | Plant response rating, Nutsedge, Yellow ([13]; 125 g ai/ha): 30 | Plant response rating, Nutsedge, Yellow ([13]; 250 g ai/ha): 20 | Plant response rating, Crabgrass, Large ([14]; 31 g ai/ha): 95 | Plant response rating, Crabgrass, Large ([14]; 62 g ai/ha): 98 | Plant response rating, Crabgrass, Large ([14]; 125 g ai/ha): 98 | Plant response rating, Crabgrass, Large ([14]; 250 g ai/ha): 100 | Plant response rating, Galium ([15]; 31 g ai/ha): 90 | Plant response rating, Galium ([15]; 62 g ai/ha): 90 | Plant response rating, Galium ([15]; 125 g ai/ha): 100 | Plant response rating, Galium ([15]; 250 g ai/ha): 100

CN1CC(c2ccc(C(F)(F)F)c(F)c2)C(C(=O)Nc2ccccc2F)C1=O (stereo not drawn) [Compound 399]
Plant response rating, Blackgrass ([1]; 31 g ai/ha): 50 | Plant response rating, Blackgrass ([1]; 62 g ai/ha): 80 | Plant response rating, Blackgrass ([1]; 125 g ai/ha): 70 | Plant response rating, Blackgrass ([1]; 250 g ai/ha): 90 | Plant response rating, Barnyardgrass ([2]; 31 g ai/ha): 95 | Plant response rating, Barnyardgrass ([2]; 62 g ai/ha): 98 | Plant response rating, Barnyardgrass ([2]; 125 g ai/ha): 100 | Plant response rating, Barnyardgrass ([2]; 250 g ai/ha): 98 | Plant response rating, Ryegrass, Italian ([3]; 62 g ai/ha): 50 | Plant response rating, Ryegrass, Italian ([3]; 125 g ai/ha): 75 | Plant response rating, Ryegrass, Italian ([3]; 250 g ai/ha): 50 | Plant response rating, Morningglory ([4]; 31 g ai/ha): 40 | Plant response rating, Morningglory ([4]; 62 g ai/ha): 40 | Plant response rating, Morningglory ([4]; 125 g ai/ha): 30 | Plant response rating, Morningglory ([4]; 250 g ai/ha): 55 | Plant response rating, Pigweed ([5]; 31 g ai/ha): 70 | Plant response rating, Pigweed ([5]; 62 g ai/ha): 75 | Plant response rating, Pigweed ([5]; 125 g ai/ha): 90 | Plant response rating, Pigweed ([5]; 250 g ai/ha): 95 | Plant response rating, Foxtail, Giant ([6]; 31 g ai/ha): 95 | Plant response rating, Foxtail, Giant ([6]; 62 g ai/ha): 95 | Plant response rating, Foxtail, Giant ([6]; 125 g ai/ha): 98 | Plant response rating, Foxtail, Giant ([6]; 250 g ai/ha): 98 | Plant response rating, Wheat ([7]; 62 g ai/ha): 15 | Plant response rating, Wheat ([7]; 125 g ai/ha): 80 | Plant response rating, Wheat ([7]; 250 g ai/ha): 75 | Plant response rating, Soybean (soybean (Glycine max); 62 g ai/ha): 0 | Plant response rating, Soybean (soybean (Glycine max); 125 g ai/ha): 0 | Plant response rating, Soybean (soybean (Glycine max); 250 g ai/ha): 0 | Plant response rating, Lambsquarters ([8]; 31 g ai/ha): 90 | Plant response rating, Lambsquarters ([8]; 62 g ai/ha): 85 | Plant response rating, Lambsquarters ([8]; 125 g ai/ha): 85 | Plant response rating, Lambsquarters ([8]; 250 g ai/ha): 98 | Plant response rating, Corn (corn (Zea mays); 31 g ai/ha): 35 | Plant response rating, Corn (corn (Zea mays); 62 g ai/ha): 40 | Plant response rating, Corn (corn (Zea mays); 125 g ai/ha): 65 | Plant response rating, Corn (corn (Zea mays); 250 g ai/ha): 60 | Plant response rating, Waterhemp ([9]; 62 g ai/ha): 80 | Plant response rating, Waterhemp ([9]; 125 g ai/ha): 90 | Plant response rating, Waterhemp ([9]; 250 g ai/ha): 98 | Plant response rating, Ragweed ([10]; 31 g ai/ha): 50 | Plant response rating, Ragweed ([10]; 62 g ai/ha): 50 | Plant response rating, Ragweed ([10]; 125 g ai/ha): 65 | Plant response rating, Ragweed ([10]; 250 g ai/ha): 80 | Plant response rating, Velvetleaf ([11]; 62 g ai/ha): 20 | Plant response rating, Velvetleaf ([11]; 125 g ai/ha): 50 | Plant response rating, Velvetleaf ([11]; 250 g ai/ha): 60 | Plant response rating, Oilseed Rape ([12]; 31 g ai/ha): 35 | Plant response rating, Oilseed Rape ([12]; 62 g ai/ha): 30 | Plant response rating, Oilseed Rape ([12]; 125 g ai/ha): 70 | Plant response rating, Oilseed Rape ([12]; 250 g ai/ha): 85 | Plant response rating, Nutsedge, Yellow ([13]; 31 g ai/ha): 0 | Plant response rating, Nutsedge, Yellow ([13]; 62 g ai/ha): 0 | Plant response rating, Nutsedge, Yellow ([13]; 125 g ai/ha): 0 | Plant response rating, Nutsedge, Yellow ([13]; 250 g ai/ha): 0 | Plant response rating, Crabgrass, Large ([14]; 31 g ai/ha): 98 | Plant response rating, Crabgrass, Large ([14]; 62 g ai/ha): 98 | Plant response rating, Crabgrass, Large ([14]; 125 g ai/ha): 100 | Plant response rating, Crabgrass, Large ([14]; 250 g ai/ha): 100 | Plant response rating, Galium ([15]; 31 g ai/ha): 80 | Plant response rating, Galium ([15]; 62 g ai/ha): 85 | Plant response rating, Galium ([15]; 125 g ai/ha): 90 | Plant response rating, Galium ([15]; 250 g ai/ha): 90
